Test results reported in US20220193072A1, “METHODS OF TREATING BREAST CANCER WITH TETRAHYDRONAPHTHALENE DERIVATIVES AS ESTROGEN RECEPTOR DEGRADER” (Arvinas Operations, Inc., priority 2020, published 2022).
Residue numbers refer to the chain shown, from its start. Where two headings read alike, the source gives them in different places.

Columns and labels:
ERα = target: T1, ERα (Homo sapiens, UniProt P03372); test: In vivo ERα degradation in MCF7 xenograft tumors (immunoblot); design: species or system NOD/SCID mice; settings: MCF7/estradiol model, fulvestrant 200 mg/kg
T1 construct: robustly degrades ER in ER-positive breast cancer cell lines; endogenous in cells; host or cells: MCF7, T47D (cell culture); MCF7 and tamoxifen-resistant MCF7 xenograft tumours in mice
T1 sequence (P03372 1-595): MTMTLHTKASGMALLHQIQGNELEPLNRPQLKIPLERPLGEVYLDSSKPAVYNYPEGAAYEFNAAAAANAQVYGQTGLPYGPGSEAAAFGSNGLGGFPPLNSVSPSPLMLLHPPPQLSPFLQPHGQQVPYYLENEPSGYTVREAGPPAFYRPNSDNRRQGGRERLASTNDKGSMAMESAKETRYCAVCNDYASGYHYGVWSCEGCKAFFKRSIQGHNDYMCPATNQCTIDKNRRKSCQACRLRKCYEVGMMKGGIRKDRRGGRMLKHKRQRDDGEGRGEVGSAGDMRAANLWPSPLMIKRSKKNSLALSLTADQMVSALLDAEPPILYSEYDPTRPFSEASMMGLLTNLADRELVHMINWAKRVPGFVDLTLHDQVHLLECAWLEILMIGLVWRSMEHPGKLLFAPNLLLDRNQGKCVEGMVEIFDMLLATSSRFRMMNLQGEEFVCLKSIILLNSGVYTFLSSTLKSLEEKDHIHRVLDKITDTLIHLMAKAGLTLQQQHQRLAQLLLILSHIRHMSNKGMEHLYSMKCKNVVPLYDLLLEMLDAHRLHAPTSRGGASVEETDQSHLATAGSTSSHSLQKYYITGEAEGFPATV
Method: Approximately 18 hours after the final administration, mice were sacrificed, and MCF7 xenografts were harvested and lysed to determine ER levels by immunoblotting. […] Diet was supplemented with peanut butter to help maintain body weights.
Species: NOD/SCID female mice (Charles River, 6-7 weeks old upon arrival).
Animal handling: Axial mammary fat pad implantation of 5×10^6 MCF7 cells/200 per mouse (17β-estradiol 0.36 mg 90-day pellet implanted day before).
Dosing: Oral (gavage), once a day (QD) for 3 days (QD×3). Vehicle: 2% Tween80/PEG400 (‘PEG/Tween’).
Sampling: Terminal sacrifice was ˜18 hrs after last dose; tumors were harvested, divided and flash frozen. ERα levels were determined by immunoblotting.
Cell Lysis: flash frozen tumors were removed from −80° C. storage and placed on dry ice. RIPA lysis buffer and Halt protease inhibitors were used at 400 μl per tumor sample. A steel ball (5 mm) was placed in each sample for tissue disruption. Samples were lysed with TissueLyzer at 24 Hz for 4 minutes. The homogenization was stopped half way through the process and the block flipped over for the duration of the process. Steel beads were pulled out of the tubes and the lysates were spun down at 21,000×g for 15 minutes at 4° C. Lysates were then measured for total protein concentration by BCA (per manufacturer's protocol).
Detection of proteins by immunoblot: lysates were mixed with sample buffer and reducing agent (per manufacturer's protocol). Samples were denatured at 95° C. for 5 minutes in thermal cycler. Samples were cooled and spun down (5000×g; 1 minute) prior to loading on gel. Gels were loaded with 10 μg total protein per lane. Samples were loaded on 4-15% Criterion Tris/Glycine gels and run for 25 minutes at 250 constant volts in 1×Tris/Glycine/SDS buffer. Protein was transferred from gels to nitrocellulose with Bio-Rad Turbo on default setting. All blots were rinsed with distilled water and blocked for 1 hour at RT in 5% BSA in TBS-T (TBS with 0.1% Tween) on rocker. The blots were cut so that beta-actin and ERα can be detected from the same lane/sample.
Blots were incubated with primary antibody in 5% BSA in TBST (0.1%) overnight at 4° C. on rocker:
Blot was washed with TBST (0.1%) three times for 5 minutes on rocker at RT. Secondary antibody was added, and blots incubated at RT on rocker for 1 hour (1:18,000 anti-rabbit-HRP in TBS-T). Blots were washed 3 times in TBST (0.1%) for 5 minutes at RT on the rocker. Signal was developed with Pierce WestFemto maximum sensitivity substrate for 5 minutes and blots imaged on BioRad ChemiDoc.
Sampling: Tumors were measured twice weekly. Terminal sacrifice was ˜18 hr after last dose; tumors were harvested, divided, and flash frozen. ERα levels were determined by immunoblotting.
At study termination, the tumors were removed from the mice, and ERα levels were determined by immunoblotting the tumor homogenates.
Sampling: tumors were measured twice weekly. Terminal sacrifice was ˜18 hr after last dose; tumors were harvested, divided, and flash frozen. ERα levels were determined by immunoblotting.

ESR1 (Y537S) PDX = ESR1 (Y537S) PDX model tumor growth inhibition; type: in vivo; settings: ESR1 (Y537S) PDX, fulvestrant 200 mg/kg SC twice/week, 2 weeks
[1] = cited from earlier work; for progression free survival (PFS): minimum follow-up 18 months
ER = target: T2, ER (Homo sapiens, UniProt P03372); settings: after 6 months of fulvestrant treatment; cited from earlier work
T2 sequence (P03372 1-595): T1 sequence (P03372 1-595)

MCF7 xenograft = test: MCF7 orthotopic xenograft, combination with CDK4/6 inhibitor; type: in vivo, NOD/SCID mice
ERα (ESR1 Y537S) = target: T3, ERα (ESR1 Y537S) (Homo sapiens, UniProt P03372, Y537S); test: Tumor ERα levels in ESR1 (Y537S) PDX model; type: in vivo; settings: ESR1 (Y537S) PDX, fulvestrant 200 mg/kg SC twice/week, 2 weeks
T3 construct: a hormone-independent patient-derived xenograft model; from tissue; host or cells: ESR1 (Y537S) patient-derived xenograft tumour grown in mice
T3 sequence (P03372 1-595 Y537S): T1 sequence (P03372 1-595) with Y537S

In the case of `C[C@]12CC[C@@H]3c4ccc(O)cc4C[C@@H](CCCCCCCCC[S+]([O-])CCCC(F)(F)C(F)(F)F)[C@H]3[C@@H]1CC[C@@H]2O` (stereo partly shown) [Fulvestrant], the “% ERα ↓” value (ERα) is listed as “None”, the “tumor growth inhibition (TGI)” value (ESR1 (Y537S) PDX) is listed as 62% and the “progression free survival (PFS)” value ([1]; fulvestrant 250 mg) is listed as 5.4 months. The response rate ([1]; fulvestrant 250 mg, CI 10.5-19.4%) was 14.6%, the “overall survival (OS)” value ([1]; fulvestrant 250 mg) was 22.8 months and the “progression free survival (PFS)” value ([1]; fulvestrant 500 mg) was 6.5 months. The response rate ([1]; fulvestrant 500 mg, 95% CI 9.7-18.8%) was 13.8%, the “overall survival (OS)” value ([1]; fulvestrant 500 mg) was 25.1 months and the “ER baseline levels remaining” value (ER) was “up to 50%”. For the same molecule, the “Day 28 Tumor volume (mean ± SD)” value (MCF7 xenograft; fulvestrant 200 mg/kg SC) was 489 ± 154 mm^3, the “TGI (% vehicle)” value (MCF7 xenograft; fulvestrant 200 mg/kg SC) was 46 % vehicle and the “tumor growth inhibition (TGI)” value (MCF7 xenograft; single agent 200 mg/kg subcutaneous, twice/week for 2 weeks) was 46%. The “reduction of tumor ERα levels” value (ERα (ESR1 Y537S)) was 63%.
